This is an account of results in patent US7186784B2, “Phosphorus-containing carboxylic acid derivatives process for preparations thereof and flame retardant” (NOF Corporation, priority 2001, dated 2007).

The structures appear in SMILES notation.

Data set [1] can be described thus: Storage stability test in blend with epoxy resin YDPN 638. Conditions: 1:1 by weight with epoxy resin YDPN 638, room temperature; for Stability Test: 30 days, viscosity increase observed visually.
Description: Then a visual observation was made about an increase in the viscosity thereof.
Data set [2] in a line: Dissolution on preparing the resin composition. Type of data set: physicochemical. As to conditions: 20.0 parts M-Acid with Epicote 828, CIC acid derivative and Nofcure-LC-1, mixed in a vial. The text has this: An attempt was made to prepare a resin composition by mixing and agitating in a vial, 5.06 parts by weight of Epicote 828, 4.94 parts by weight of a derivative from CIC acid by n-propylvinyl ether, 20.0 parts by weight of unmodified M-Acid and 0.21 parts by weight of Nofcure-LC-1. However, the M-Acid was not dissolved, thereby forming non-homogeneous and opaque suspension.

Regarding `CCOP(=O)(CC(CC(=O)O)C(=O)O)OCC` (stereo not shown) [DEHP-ItaA], in data set [1], the “Stability Test: time before hardening (figure in parentheses)” value (“Stability Test: time before hardening” for short) came to 5 min and the “Stability Test” value is recorded as “Hardened”.
For `O=C(O)CC(CP1(=O)Oc2ccccc2-c2ccccc21)C(=O)O` (stereo not shown) [M-Acid], the “dissolution in resin composition” value in data set [2] was “not dissolved”.
On to `O=C(O)CCC(CC(=O)O)(C(=O)O)P(=O)(O)O` (stereo not shown) [PBTC, 2-phosphonobutane-1,2,4-tricarboxylic acid], for which, in data set [1], the “Stability Test: time before hardening” value amounted to 15 min and the “Stability Test” value was “Hardened”.
Consider `O=C(O)CC(CP(=O)(Oc1ccccc1)Oc1ccccc1)C(=O)O` (stereo not shown) [Ref. Example. 7], for which, in data set [1], the “Stability Test: time before hardening” value worked out at 5 min and the “Stability Test” value was “Hardened”.
